This is an account of results in patent US5741516A, “Sphingosomes for enhanced drug delivery” (priority 1995, dated 1998).

For series [1] the following is noted: for animals that died after chemotherapy (in words): LD50 dose, within a few days; for Survival (%): 14 days.
Source text: Female C57BL/6 mice (average weight 15.03 g), were used and housed under standard conditions. The animals received free access to both food and water throughout the experiment after a one week acclimatization period prior to experimental manipulation. The mice were 6 weeks old on the beginning of the experiment and placed randomly in 12 groups of 5 mice per group.
Series [2] deals with bone marrow. The note with it: cited from earlier work.
A further series concerns tumor cells. The note with it: in vitro; cited from earlier work.
Series [3] relates to bone marrow. Description: Bone marrow cellularity after chemotherapy. It counts as in vivo, C57BL/6 mice. The note with it: 14 days after chemotherapy; orally or i.p., vs GM-CSF i.p. 10 days. How it is done:
On the 15th day after the initial chemotherapeutic dose, 4 mice from each group of the immunomodulation study (Example 6) were randomly sacrificed and up to 1 ml of blood was obtained by cardiac puncture. Circulating peripheral WBCs were counted, blood smears (for neutrophil counts) were made and plasma samples were collected and tested for cytokine production (IL-1, IL-2, TNF). Blood cytokine levels (TNF, IL-1, and IL-2) were assayed by commercially available assay kits. The spleen, thymus and bone marrow were removed and single cell suspensions were prepared. The cellularity of these lymphoid organs was assessed by trypan blue exclusion test.

The test system of another series is IL-2. Description: IL-2 production by mitogen-stimulated splenocytes. It counts as in vivo, C57BL/6 mice. The note with it: vs chemotherapy-treated and PBS controls, FIG. 10B. How it is done:
(§1) Cells from spleen, thymus and bone marrow were tested for their ability to respond to stimulation from different mitogens: ConA (1, 2.5 and 5 μg/ml) (Sigma), phytohemagglutinin (PHA) (1, and 2.5 μg/ml) (Sigma) and LPS (2.5 and 5 μg/ml) (Difco). After 72 hours of stimulation the proliferative response was measured using CellTiter 96 (Promega). Simultaneously, mitogen stimulated splenocytes were set up for cytokine production after ConA (2.5 μg/ml) and lipopolysaccharide (LPS) (2.5 μg/ml) stimulation. The supernatants were collected after 24 hr. and 48 hr. and tested for Tumor Necrosis Factor-α (TNF-α) and Interleukin-2 (IL-2) production using the direct ELISA method. Supernatants from unstimulated cells served as controls. Results are expressed as pg/ml of TNF-α (sensitivity of the assay is <25 pg/ml) or IL-2 (sensitivity of the assay is <3 pg/ml).

In the next series the test system is TNF-α. The series can be described thus: TNF production by mitogen-stimulated splenocytes. Particulars: vs chemotherapy-treated and PBS controls, FIG. 10A. It counts as in vivo, C57BL/6 mice. How it is done:
as §1

A short description of series [4]: Bioavailability of liposomal swainsonine. It is filed as in vivo, Balb/c mice. Particulars: p.o. vs i.v. How it is done: Female Balb/c mice, 5-6 weeks of age, were housed under standard conditions. […] Swainsonine (Toronto Res. Chem.) was radiolabeled with tritium. Tritiated swainsonine was administered as a lipid-based formulation (L-Im) and as an aqueous formulation containing the free drug (F-Im). Tritiated swainsonine was loaded into sphingomyelin/cholesterol (Avanti Polar Labs) sphingosomes using a citrate buffer pH 2 gradient at a drug-to-lipid ratio of 0.2:1 (mol:mol) and with an efficiency of loading of 80%. Two hundred microliters of the lipid and aqueous swainsonine formulations were given orally by gavage (p.o.), intraperitoneally (i.p.), or intravenously (i.v.). Fifty microliter blood samples were collected by retroorbital bleeds at 1, 3, 6, and 24 hours after administration. The blood samples were bleached and then counted in a scintillation counter. Results were expressed as the percentage of the administered dose in the blood at various time-points after administration.

The subject of series [5] is IL-1, IL-2, TNF, GM-CSF and interferons. Particulars: cited from earlier work.
Series [6] deals with colon cancer and melanoma cancers. The note with it: combined with interferon, in vivo; cited from earlier work.
A short description of series [7]: In vitro oral stability in gastric contents. Particulars: simulated gastric contents; hydrochloric acid (pH2) with pepsin; up to 72 hours. It is filed as physicochemical. How it is done:
To establish an advantage for the oral route of administration, swainsonine was incubated in vitro in simulated gastric contents for various periods of time (1, 2, 4, 24, 48 and 72 hrs.) and the "oral stability" of swainsonine was determined. Swainsonine was also incubated in hydrochloric acid (pH2) containing the main gastric digestive enzyme, pepsin.

A further series concerns A431 tumors. The series can be described thus: Antitumor efficacy against A431 tumors. The note with it: vincristine 2.0 mg/kg i.v. It counts as in vivo, human A431 xenograft, SCID mice. How it is done:
Tumor loading and antitumor efficacy properties of DSPC/Chol and SM/Chol liposomal formulations of vincristine were determined in mice bearing solid human A431 squamous cell xenograft tumors. These experiments were undertaken to ensure that the positive results observed in the murine ascitic P388 tumor model were representative of other tumor types. SCID mice bearing 100-200 mg solid human A431 tumors were injected i.v. with free vincristine or with liposomes of either DSPC/Chol or SM/Chol containing vincristine. Vincristine encapsulated DSPC/Chol and SM/Chol liposomes were prepared as in Example II. […] As observed in BDF1 mice bearing P388 tumors, the amount of vincristine remaining in the circulation in SM/Chol liposomes at 24 hours after injection was approximately 3-fold greater than for vincristine encapsulated in DSPC/Chol liposomes (FIG. 11A).
The antitumor efficacy of free and liposomal vincristine against A431 was closely correlated with vincristine accumulation at the tumor site (FIG. 12). […] This therapy was further enhanced by a single treatment of vincristine encapsulated in SM/Chol liposomes. […] Of the five mice (total of 10 tumors) treated with SM/Chol liposomal vincristine, 1 animal was terminated early due to tumor ulceration, not due to tumor growth.
Background: In xenograft studies the graft and the host belong to different species.

Series [8] is described as follows: Vincristine uptake into liposomes by pH gradient. It is filed as physicochemical. Particulars: drug/lipid 0.1/1 (wt/wt), 10 minutes at 60° C. How it is done: Uptake of vincristine into large unilamellar liposomes was achieved using a pH gradient-dependent procedure described by Mayer et al., Cancer Chemother. Pharmacol. 33:17-24 (1993), incorporated herein by reference. Briefly, a solution of vincristine sulfate (Oncovin®, Eli Lilly, Indianapolis, Ind.) was added to liposomes at a drug/lipid ratio of 0.1/1 (wt/wt) and equilibrated at 60° C. for 5 to 10 minutes. Vincristine uptake in response to a transmembrane pH gradient was initiated by the addition of 0.5M Na2 HPO4 to bring the external pH to 7.2-7.6.

For series [9] the following is noted: in vivo; cited from earlier work.

Read-outs that look alike come from different tables or passages of the source.

As for `COc1cccc2c1C(=O)c1c(O)c3c(c(O)c1C2=O)C[C@@](O)(C(=O)CO)C[C@@H]3O[C@H]1C[C@H](N)[C@H](O)[C@H](C)O1` [DOX, Doxorubicin], in series [1], the “animals that died after chemotherapy (in words)” value is listed as “half”. In addition, in series [1] (i.p.), the “Survival (%)” value worked out at 60%.

With `CN(Cc1cnc2nc(N)nc(N)c2n1)c1ccc(C(=O)N[C@@H](CCC(=O)O)C(=O)O)cc1` [MTX, methotrexate], the “animals that died after chemotherapy (in words)” value in [1] is “Half”. The “Survival (%)” value in [1] (i.p.) is 40%.

On to `O[C@H]1[C@H]2[C@H](O)CCCN2C[C@H]1O` [swainsonine], for which, in the series on bone marrow [2], the bone marrow proliferation result was “has the capacity to stimulate bone marrow proliferation”. The “B- and T-cell immunity, natural killer T-cell and macrophage-induced destruction of tumor cells” value in the series with tumor cells is “induces B- and T-cell immunity, natural killer T-cell and macrophage-induced destruction of tumor cells in vitro”. The bone marrow cellularity entry in the series on bone marrow [3] was “performed as effectively as GM-CSF”. Moreover, the “Survival (%)” value in series [1] (i.p.) and in series [1] (p.o.) was 100% throughout. In series [1] (swainsonine intravenously or i.p. / GM-CSF i.p., 10 days, after Mtx or Dox), the “survival beyond 2 weeks after chemotherapy (in words)” value is “all animals”. In series [1] (swainsonine p.o. 10 days after Mtx or Dox), the “survival after cytotoxic treatment (in words)” value was “all but one animal”. Further, the “IL-2 level in stimulated splenocytes” value in the series with IL-2 was “significantly elevated”. The “TNF level in stimulated splenocytes” value in the series with TNF-α was “significantly elevated”. In addition, the “oral bioavailability compared to swainsonine administered intravenously” value in series [4] is listed as 60-65%. In [5], the “production of multiple cytokines” value is “stimulates the production of multiple cytokines”. For the same compound, the direct anti-tumor activity result in series [6] was “direct anti-tumor activity against colon cancer and melanoma cancers”. Also, the “in vitro oral stability” value in series [7] was “stable under these harsh conditions for up to 72 hours”.

As to `CC[C@]1(O)C[C@H]2CN(CCc3c([nH]c4ccccc34)[C@@](C(=O)OC)(c3cc4c(cc3OC)N(C=O)[C@H]3[C@@](O)(C(=O)OC)[C@H](OC(C)=O)[C@]5(CC)C=CCN6CC[C@]43[C@@H]65)C2)C1` [vincristine], in the series on A431 tumors, the “delay in tumor growth / change in tumor size” value is reported as “brief delay in tumor growth”, the “time to 100% increase in tumor weight” value is 6 to 8 days and the “time to required termination” value was in the range of 10 to 12 days. Further, the trapping efficiency entry in series [8] was “approximately 95%”.

In the case of sphingomyelin, the “circulation lifetime of liposomes” value in series [9] is “increase in the circulation lifetime of liposomes”.
